Laboratory results reported in paper PMC5934274 (Journal of medicinal chemistry, 2016).
Read-outs that look alike come from different tables or passages of the source.

Key:
[1] = tested on: PARP2; details: read-out: KM NAD+ (literature); PARP2 FL row; cited from earlier work
[2] = target: PARP14 (Homo sapiens, UniProt Q460N5); assay: In vitro ADP-ribosylation assay, PARP14; assay type: biochemical; details: read-out: KM NAD+; PARP14 ART
[3] = target: T1, PARP16 (Homo sapiens, UniProt Q8N5Y8); details: read-out: KM NAD+ (literature); PARP16 FL row; cited from earlier work
T1 sequence (Q8N5Y8 1-322): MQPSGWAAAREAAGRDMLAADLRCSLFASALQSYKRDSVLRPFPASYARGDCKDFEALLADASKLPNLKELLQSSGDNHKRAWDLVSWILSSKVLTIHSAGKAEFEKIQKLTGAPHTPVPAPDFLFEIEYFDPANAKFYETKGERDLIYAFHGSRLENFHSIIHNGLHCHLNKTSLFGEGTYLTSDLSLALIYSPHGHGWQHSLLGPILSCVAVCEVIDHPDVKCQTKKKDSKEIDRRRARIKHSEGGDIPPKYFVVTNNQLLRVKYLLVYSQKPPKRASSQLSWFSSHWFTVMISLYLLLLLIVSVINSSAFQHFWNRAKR

[4] = tested on: PARP1; details: read-out: KM NAD+ (literature), cited from earlier work
[5] = target: T2, PARP10 (Homo sapiens, UniProt Q53GL7); details: read-out: KM NAD+ (literature); PARP10 FL row; cited from earlier work
T2 sequence (Q53GL7 1-1025): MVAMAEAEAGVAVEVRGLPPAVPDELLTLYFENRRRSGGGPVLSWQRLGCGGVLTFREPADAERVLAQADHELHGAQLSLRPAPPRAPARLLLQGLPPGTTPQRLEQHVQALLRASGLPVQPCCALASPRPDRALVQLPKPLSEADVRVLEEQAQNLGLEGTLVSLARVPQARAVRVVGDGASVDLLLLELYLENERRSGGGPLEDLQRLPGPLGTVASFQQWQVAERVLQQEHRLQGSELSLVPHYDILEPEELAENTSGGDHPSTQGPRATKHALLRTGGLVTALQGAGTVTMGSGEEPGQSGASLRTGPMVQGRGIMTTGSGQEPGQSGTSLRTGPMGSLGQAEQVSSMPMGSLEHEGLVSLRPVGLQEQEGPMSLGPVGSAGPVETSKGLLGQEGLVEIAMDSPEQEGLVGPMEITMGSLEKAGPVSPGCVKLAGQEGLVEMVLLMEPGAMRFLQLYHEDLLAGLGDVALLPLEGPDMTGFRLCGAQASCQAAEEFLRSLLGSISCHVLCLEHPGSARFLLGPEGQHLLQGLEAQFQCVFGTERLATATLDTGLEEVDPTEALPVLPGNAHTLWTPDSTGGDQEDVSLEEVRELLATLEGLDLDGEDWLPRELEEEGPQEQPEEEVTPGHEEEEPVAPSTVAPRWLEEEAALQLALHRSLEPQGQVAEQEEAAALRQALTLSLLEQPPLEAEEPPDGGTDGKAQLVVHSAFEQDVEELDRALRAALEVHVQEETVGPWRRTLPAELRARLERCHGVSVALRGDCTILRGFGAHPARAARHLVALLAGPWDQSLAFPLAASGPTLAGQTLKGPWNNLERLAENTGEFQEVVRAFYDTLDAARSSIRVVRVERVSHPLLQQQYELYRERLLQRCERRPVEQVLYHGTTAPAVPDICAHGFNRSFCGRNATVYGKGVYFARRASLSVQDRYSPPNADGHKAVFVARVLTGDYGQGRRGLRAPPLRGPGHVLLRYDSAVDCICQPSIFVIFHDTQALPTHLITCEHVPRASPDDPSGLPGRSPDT

[6] = tested on: PARP1; assay: In vitro ADP-ribosylation assay, PARP1; assay type: biochemical, human; details: selectivity toward PARP1 and -2 over other PARP family members

Sequence of PARP14 (Q460N5 whole entry): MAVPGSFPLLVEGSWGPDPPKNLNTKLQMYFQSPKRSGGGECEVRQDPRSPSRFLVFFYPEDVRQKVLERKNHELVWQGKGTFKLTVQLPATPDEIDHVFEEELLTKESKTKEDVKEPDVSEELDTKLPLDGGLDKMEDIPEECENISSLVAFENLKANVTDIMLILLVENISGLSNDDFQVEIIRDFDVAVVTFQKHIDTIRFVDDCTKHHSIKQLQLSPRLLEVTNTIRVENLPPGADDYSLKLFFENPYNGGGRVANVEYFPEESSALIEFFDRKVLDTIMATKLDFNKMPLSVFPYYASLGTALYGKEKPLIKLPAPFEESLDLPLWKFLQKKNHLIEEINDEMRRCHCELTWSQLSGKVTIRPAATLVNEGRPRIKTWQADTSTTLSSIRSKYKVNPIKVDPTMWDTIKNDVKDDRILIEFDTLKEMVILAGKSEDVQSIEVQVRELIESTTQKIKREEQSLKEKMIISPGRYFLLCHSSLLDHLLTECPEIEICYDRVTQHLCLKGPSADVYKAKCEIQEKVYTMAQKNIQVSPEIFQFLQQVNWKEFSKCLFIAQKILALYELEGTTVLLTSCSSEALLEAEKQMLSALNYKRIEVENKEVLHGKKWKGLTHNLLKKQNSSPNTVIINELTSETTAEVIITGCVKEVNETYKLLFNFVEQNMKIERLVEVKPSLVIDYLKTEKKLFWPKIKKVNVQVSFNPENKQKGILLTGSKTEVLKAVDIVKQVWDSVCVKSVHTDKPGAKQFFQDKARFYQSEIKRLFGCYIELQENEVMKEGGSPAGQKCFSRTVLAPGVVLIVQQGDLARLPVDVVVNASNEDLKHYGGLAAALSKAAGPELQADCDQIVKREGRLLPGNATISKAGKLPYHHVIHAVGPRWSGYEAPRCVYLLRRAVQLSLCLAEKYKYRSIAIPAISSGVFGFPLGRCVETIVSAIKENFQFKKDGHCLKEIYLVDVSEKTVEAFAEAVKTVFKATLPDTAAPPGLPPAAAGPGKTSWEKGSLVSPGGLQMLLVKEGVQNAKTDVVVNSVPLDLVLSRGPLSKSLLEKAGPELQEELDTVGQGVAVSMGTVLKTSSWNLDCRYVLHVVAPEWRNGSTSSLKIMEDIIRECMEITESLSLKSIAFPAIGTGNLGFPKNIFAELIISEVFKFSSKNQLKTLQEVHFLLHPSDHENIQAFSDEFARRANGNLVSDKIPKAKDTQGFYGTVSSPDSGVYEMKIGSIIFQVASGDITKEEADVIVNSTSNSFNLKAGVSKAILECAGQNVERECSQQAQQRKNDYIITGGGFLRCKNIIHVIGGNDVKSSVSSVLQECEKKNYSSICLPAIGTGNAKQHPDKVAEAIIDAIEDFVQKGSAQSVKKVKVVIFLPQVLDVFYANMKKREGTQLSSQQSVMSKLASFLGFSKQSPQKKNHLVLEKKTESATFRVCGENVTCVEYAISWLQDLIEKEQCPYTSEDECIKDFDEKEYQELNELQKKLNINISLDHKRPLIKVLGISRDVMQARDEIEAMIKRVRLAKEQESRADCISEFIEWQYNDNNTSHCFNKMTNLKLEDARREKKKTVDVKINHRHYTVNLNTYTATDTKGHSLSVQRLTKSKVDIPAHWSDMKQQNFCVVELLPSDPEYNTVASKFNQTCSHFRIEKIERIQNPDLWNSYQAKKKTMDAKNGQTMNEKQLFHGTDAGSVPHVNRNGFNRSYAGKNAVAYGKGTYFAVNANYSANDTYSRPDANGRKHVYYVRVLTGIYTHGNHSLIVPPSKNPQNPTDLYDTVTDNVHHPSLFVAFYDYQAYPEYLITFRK

In the case of NC(=O)c1ccc[n+]([C@@H]2O[C@H](COP(=O)([O-])OP(=O)(O)OC[C@H]3O[C@@H](n4cnc5c(N)ncnc54)[C@H](O)[C@@H]3O)[C@@H](O)[C@H]2O)c1 [NAD+, nicotinamide adenine dinucleotide], the Km [1] is listed as 130 µM, the Km [2] is listed as 62 ± 7 µM and the Km [3] is listed as 280 µM. For the same compound, the Km ([4]; PARP1 ART row) was 30 to 130 µM, the Km ([4]; PARP1 FL row) was 50 µM and the Km [5] was 50 µM.
For C[C@]1(c2nc3c(C(N)=O)cccc3[nH]2)CCCN1 [Veliparib], the “IC50 values for PARP1 and -2 lower than those for other family members” value [6] was over 100 fold.
